In patent US20240228488A1 (TAKEDA PHARMACEUTICAL COMPANY LIMITED, priority 2021, published 2024):
pEC50: −log10 of the molar value.

Columns and labels:
[1] = target: human activated kallikrein enzyme (Homo sapiens, UniProt P03952); assay: Plasma kallikrein inhibition, fluorogenic PFR-AMC substrate, 500 pM activated kallikrein format; format: biochemical; details: 500 pM activated kallikrein, 300 uM PFR-AMC, 30 min preincubation, 10 min reaction; read-out: Primary Dose Response Assay: Average EC50
human activated kallikrein enzyme, sequence (P03952 391-638 limits assumed): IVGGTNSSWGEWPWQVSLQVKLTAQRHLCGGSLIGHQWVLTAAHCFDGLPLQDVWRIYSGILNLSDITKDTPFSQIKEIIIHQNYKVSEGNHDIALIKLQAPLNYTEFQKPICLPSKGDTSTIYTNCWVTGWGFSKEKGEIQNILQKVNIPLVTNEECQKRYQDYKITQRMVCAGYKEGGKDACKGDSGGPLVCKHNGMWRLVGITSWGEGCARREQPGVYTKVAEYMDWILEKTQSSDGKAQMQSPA
human activated kallikrein enzyme, sequence (P03952 20-390 partner limits assumed): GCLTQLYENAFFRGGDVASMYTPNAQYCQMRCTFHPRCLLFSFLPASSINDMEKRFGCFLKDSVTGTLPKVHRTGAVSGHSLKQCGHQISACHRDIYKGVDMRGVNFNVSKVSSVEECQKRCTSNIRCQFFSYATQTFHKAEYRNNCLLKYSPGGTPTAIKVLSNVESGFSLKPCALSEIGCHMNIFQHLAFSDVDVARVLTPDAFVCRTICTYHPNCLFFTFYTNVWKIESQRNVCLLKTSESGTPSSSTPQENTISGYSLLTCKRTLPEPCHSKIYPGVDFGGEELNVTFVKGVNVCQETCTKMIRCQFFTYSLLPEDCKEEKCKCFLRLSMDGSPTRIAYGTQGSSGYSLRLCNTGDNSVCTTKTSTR
In short: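 Fluorogenic readout (ex 380 / em 460 nm) after 10 min room-temperature reaction with 300 uM Pro-Phe-Arg-AMC substrate, following 30 min preincubation of inhibitors with 500 pM enzyme. Buffer: Tris pH 7.5, EDTA, NaCl, PEG-400, Triton X-100. Values given as EC50 ranges.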

[2] = target: T1, plasma kallikrein (Homo sapiens, UniProt P03952); assay: Neat human plasma assay, FXIIa contact pathway-activated, PFR-AMC substrate; format: biochemical; details: citrated human plasma 78% final, 10 nM human FXIIa, 100 μM PFR-AMC; read-out: Human Plasma Assay: IC90
T1 construct: from tissue
T1 sequence (P03952 391-638 limits assumed): as the sequence (P03952 391-638 limits assumed) above
T1 sequence (P03952 20-390 partner limits assumed): as the sequence (P03952 20-390 partner limits assumed) above
In short: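 Compound inhibition of plasma kallikrein measured as PFR-AMC (100 μM) cleavage rate over 5 min at room temperature in 78% citrated human plasma activated with 10 nM FXIIa (Tris pH 7.5 buffer). IC50/IC90 from 4-parameter fit of rate versus inhibitor concentration.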

| Structure (SMILES) | pEC50 [1] | IC90 [2] [nM] |
| --- | --- | --- |
| Cc1ccnc([C@H]2C[C@@H]2C(=O)Nc2cc(NC(C)c3cn4cc(C5CC5)cc(N5CC(=O)N(C)C5=O)c4n3)nc(C)n2)n1 (stereo partly drawn) [Example 454, (1S,2S)—N-(6-((1-(6-cyclopropyl-8-(3-methyl-2,4-dioxoimidazolidin-1-yl)imidazo[1,2-a]pyridin-2-yl)ethyl)amino)-2-methylpyrimidin-4-yl)-2-(4-methylpyrimidin-2-yl)cyclopropane-1-carboxamide] | > 9.00 | 400 to 1500 |
| Cc1ccnc([C@H]2C[C@@H]2C(=O)Nc2cc(NC(C)c3cn4cc(C5CC5)cc(N5CC(=O)N(CCO)C5=O)c4n3)nc(C3CC3)n2)n1 (stereo partly drawn) [Example 460, (1S,2S)—N-(2-cyclopropyl-6-((1-(6-cyclopropyl-8-(3-(2-hydroxyethyl)-2,4-dioxoimidazolidin-1-yl)imidazo[1,2-a]pyridin-2-yl)ethyl)amino)pyrimidin-4-yl)-2-(4-methylpyrimidin-2-yl)cyclopropane-1-carboxamide] | 8.00 to 9.00 | 1500 to 10000 |
| Cc1ccnc([C@H]2C[C@@H]2C(=O)Nc2cc(N(C)Cc3cn4cc(C5CC5)cc(N5CC(=O)N(CCO)C5=O)c4n3)ncn2)n1 [Example 462, (1S,2S)-N-(6-(((6-cyclopropyl-8-(3-(2-hydroxyethyl)-2,4-dioxoimidazolidin-1-yl)imidazo[1,2-a]pyridin-2-yl)methyl)(methyl)amino)pyrimidin-4-yl)-2-(4-methylpyrimidin-2-yl)cyclopropane-1-carboxamide] | > 9.00 | < 400 |
| O=C(Nc1cc(NCc2cn3cc(C4CC4)cc(N4CC(=O)N(CCO)C4=O)c3n2)ncn1)[C@H]1C[C@@H]1c1cccc(Cl)c1 [Example 463, (1S,2S)-2-(3-chlorophenyl)-N-(6-(((6-cyclopropyl-8-(3-(2-hydroxyethyl)-2,4-dioxoimidazolidin-1-yl)imidazo[1,2-a]pyridin-2-yl)methyl)amino)pyrimidin-4-yl)cyclopropane-1-carboxamide] | > 9.00 | 400 to 1500 |
| Cc1ccnc([C@H]2C[C@@H]2C(=O)Nc2cc(NCc3cn4cc(C5CC5)cc(N5CC(=O)N(CCO)C5=O)c4n3)ncn2)n1 [Example 464, (1S,2S)-N-(6-(((6-cyclopropyl-8-(3-(2-hydroxyethyl)-2,4-dioxoimidazolidin-1-yl)imidazo[1,2-a]pyridin-2-yl)methyl)amino)pyrimidin-4-yl)-2-(4-methylpyrimidin-2-yl)cyclopropane-1-carboxamide] | > 9.00 | < 400 |
| Cc1ccnc([C@H]2C[C@@H]2C(=O)Nc2cc(NCc3cn4cc(C5CC5)cc(N5CC(=O)N(CC(=O)O)C5=O)c4n3)ncn2)n1 [Example 465] | > 9.00 | 400 to 1500 |
| Cc1ccnc([C@H]2C[C@@H]2C(=O)Nc2cc(NCc3cn4cc(C5CC5)cc(N5CC(=O)N(COP(=O)(O)O)C5=O)c4n3)ncn2)n1 [Example 466, (3-(6-cyclopropyl-2-(((6-((1S,2S)-2-(4-methylpyrimidin-2-yl)cyclopropane-1-carboxamido)pyrimidin-4-yl)amino)methyl)imidazo[1,2-a]pyridin-8-yl)-2,5-dioxoimidazolidin-1-yl)methyl dihydrogen phosphate] | > 9.00 | 1500 to 10000 |
| O=C1CN(c2cc(C3CC3)cn3cc([C@H]4C[C@H](O)CN4c4cc(NC(=O)[C@H]5C[C@@H]5c5cc(Cl)ccn5)ncn4)nc23)C(=O)N1 [Example 475, (1S,2S)-2-(4-chloropyridin-2-yl)-N-(6-((2R,4S)-2-(6-cyclopropyl-8-(2,4-dioxoimidazolidin-1-yl)imidazo[1,2-a]pyridin-2-yl)-4-hydroxypyrrolidin-1-yl)pyrimidin-4-yl)cyclopropane-1-carboxamide] | > 9.00 | < 400 |
| CN1C(=O)CN(c2cc(C3CC3)cn3cc([C@H]4C[C@H](O)CN4c4cc(NC(=O)[C@H]5C[C@@H]5c5cc(Cl)ccn5)ncn4)nc23)C1=O [Example 478, (1S,2S)-2-(4-chloropyridin-2-yl)-N-(6-((2R,4S)-2-(6-cyclopropyl-8-(3-methyl-2,4-dioxoimidazolidin-1-yl)imidazo[1,2-a]pyridin-2-yl)-4-hydroxypyrrolidin-1-yl)pyrimidin-4-yl)cyclopropane-1-carboxamide] | > 9.00 | 400 to 1500 |
| O=C(Nc1cc(N2C[C@@H](O)C[C@@H]2c2cn3cc(C4CC4)cc(N4CCOC4=O)c3n2)ncn1)[C@H]1C[C@@H]1c1cccc(Cl)c1 [Example 479, (1S,2S)-2-(3-chlorophenyl)-N-(6-((2R,4S)-2-(6-cyclopropyl-8-(2-oxooxazolidin-3-yl)imidazo[1,2-a]pyridin-2-yl)-4-hydroxypyrrolidin-1-yl)pyrimidin-4-yl)cyclopropane-1-carboxamide] | 8.00 to 9.00 | 1500 to 10000 |
| CN1C(=O)CN(c2cc(C3CC3)cn3cc([C@H]4C[C@H](O)CN4c4cc(NC(=O)[C@H]5C[C@@H]5c5cccc(Cl)c5)ncn4)nc23)C1=O [Example 480, (1S,2S)-2-(3-chlorophenyl)-N-(6-((2R,4S)-2-(6-cyclopropyl-8-(3-methyl-2,4-dioxoimidazolidin-1-yl)imidazo[1,2-a]pyridin-2-yl)-4-hydroxypyrrolidin-1-yl)pyrimidin-4-yl)cyclopropane-1-carboxamide] | 8.00 to 9.00 | < 400 |
| O=C1CN(c2cc(C3CC3)cn3cc(CNc4cc(NC(=O)[C@H]5C[C@@H]5c5cc(Cl)ccn5)nc(O)n4)nc23)C(=O)N1 [Example 487, (1S,2S)-2-(4-chloropyridin-2-yl)-N-(6-(((6-cyclopropyl-8-(2,4-dioxoimidazolidin-1-yl)imidazo[1,2-a]pyridin-2-yl)methyl)amino)-2-hydroxypyrimidin-4-yl)cyclopropane-1-carboxamide] | > 9.00 | < 400 |
| CN1CCC(O)(c2cc(C3CC3)cn3cc(CNc4ccnc(NC(=O)[C@H]5C[C@@H]5c5cccc(Cl)c5)c4)nc23)CC1 [Example 488, (1S,2S)-2-(3-chlorophenyl)-N-(4-(((6-cyclopropyl-8-(4-hydroxy-1-methylpiperidin-4-yl)imidazo[1,2-a]pyridin-2-yl)methyl)amino)pyridin-2-yl)cyclopropane-1-carboxamide] | > 9.00 | 400 to 1500 |
| O=C(Nc1cc(NCc2cn3cc(C4CC4)cc(N4CC(=O)N(CC(F)(F)F)C4=O)c3n2)ccn1)[C@H]1C[C@@H]1c1cccc(Cl)c1 [Example 512, (1S,2S)-2-(3-chlorophenyl)-N-(4-(((6-cyclopropyl-8-(2,4-dioxo-3-(2,2,2-trifluoroethyl)imidazolidin-1-yl)imidazo[1,2-a]pyridin-2-yl)methyl)amino)pyridin-2-yl)cyclopropane-1-carboxamide] | 8.00 to 9.00 | 1500 to 10000 |
| O=C(Nc1cc(NCc2cn3cc(C4CC4)cc(N4CC(=O)N(C5CC5)C4=O)c3n2)ccn1)[C@H]1C[C@@H]1c1cccc(Cl)c1 [Example 513, (1S,2S)-2-(3-chlorophenyl)-N-(4-(((6-cyclopropyl-8-(3-cyclopropyl-2,4-dioxoimidazolidin-1-yl)imidazo[1,2-a]pyridin-2-yl)methyl)amino)pyridin-2-yl)cyclopropane-1-carboxamide] | > 9.00 | 1500 to 10000 |
| Cc1ccnc([C@H]2C[C@@H]2C(=O)Nc2cc(N[C@H](C)c3cn4cc(C5CC5)cc(N5CCOC5=O)c4n3)ncn2)n1 [Example 534, (1S,2S)-N-(6-(((R)-1-(6-cyclopropyl-8-(2-oxooxazolidin-3-yl)imidazo[1,2-a]pyridin-2-yl)ethyl)amino)pyrimidin-4-yl)-2-(4-methylpyrimidin-2-yl)cyclopropane-1-carboxamide] | > 9.00 | < 400 |
| Cc1ccnc([C@H]2C[C@@H]2C(=O)Nc2cc(OC(C)c3cn4cc(C5CC5)cc(N5CC(=O)N(C)C5=O)c4n3)ncn2)n1 (stereo partly drawn) [Example 549, (1S,2S)—N-(6-(1-(6-cyclopropyl-8-(3-methyl-2,4-dioxoimidazolidin-1-yl)imidazo[1,2-a]pyridin-2-yl)ethoxy)pyrimidin-4-yl)-2-(4-methylpyrimidin-2-yl)cyclopropane-1-carboxamide] | > 9.00 | 400 to 1500 |
| COC(=O)CN1C(=O)CN(c2cc(C3CC3)cn3cc(COc4cc(NC(=O)[C@H]5C[C@@H]5c5nccc(C)n5)nc(C)n4)nc23)C1=O [Example 550, methyl 2-(3-(6-cyclopropyl-2-(((2-methyl-6-((1S,2S)-2-(4-methylpyrimidin-2-yl)cyclopropane-1-carboxamido)pyrimidin-4-yl)oxy)methyl)imidazo[1,2-a]pyridin-8-yl)-2,5-dioxoimidazolidin-1-yl)acetate] | > 9.00 | 400 to 1500 |
| COCc1nc(NC(=O)[C@H]2C[C@@H]2c2nccc(C)n2)cc(OCc2cn3cc(C4CC4)cc(N4CC(=O)N(C)C4=O)c3n2)n1 [Example 551, (1S,2S)-N-(6-((6-cyclopropyl-8-(3-methyl-2,4-dioxoimidazolidin-1-yl)imidazo[1,2-a]pyridin-2-yl)methoxy)-2-(methoxymethyl)pyrimidin-4-yl)-2-(4-methylpyrimidin-2-yl)cyclopropane-1-carboxamide] | > 9.00 | 400 to 1500 |
| Cc1ccnc([C@H]2C[C@@H]2C(=O)Nc2cc(OC(C)c3cn4cc(C5CC5)cc(N5CC(=O)N(C)C5=O)c4n3)nc(C)n2)n1 (stereo partly drawn) [Example 552, (1S,2S)-N-(6-(1-(6-cyclopropyl-8-(3-methyl-2,4-dioxoimidazolidin-1-yl)imidazo[1,2-a]pyridin-2-yl)ethoxy)-2-methylpyrimidin-4-yl)-2-(4-methylpyrimidin-2-yl)cyclopropane-1-carboxamide] | > 9.00 | 1500 to 10000 |
